The target of series [1] is T1, PDGFRβ (Homo sapiens (Human), UniProt P09619). Nature of the series: PDGF-BB induced phosphorylation of PDGFRβ in fibroblasts (MRC5, HTRF). Format: cell-based. The note with it: MRC5 cells, PDGFBB stimulation; read-out: PDGFBB-induced PDGFRβ phosphorylation in MRC5 cells (IC50). (In general: Time-resolved FRET reads energy transfer from a long-lived donor to a nearby acceptor.)

The target in series [2] is T1, PDGFRβ. Nature of the series: PDGFRβ enzyme inhibition (ADP-Glo assay). The series is classed as biochemical. The conditions noted are these: mean, n = 2 (nintedanib n = 34). (In general: In ADP-Glo the light output rises with the ADP produced.)
Series [3] concerns MRC5 cells. Nature of the series: Cell viability assay in MRC5 cells (MTT).
The nature of series [4]: PAMPA permeability assay. The conditions noted are these: pH 7, PAMPA; for Papp at 5 h, 10 µM: pH 7, 10 μM. Format: in vitro ADME.

The structures appear in SMILES notation. Where a name gives a salt, the structure may show the parent alone.

One may read the IC50 as the concentration needed to halve the response being measured. A word on the Ki: it is the equilibrium dissociation constant of an inhibitor or competing ligand from its target. Read a low Ki as a stronger hold on the target. The term Papp denotes the rate of passage across a membrane or cell layer, normalised by area and donor concentration. A higher Papp goes with fast passage.

T1 sequence (P09619 33-1106): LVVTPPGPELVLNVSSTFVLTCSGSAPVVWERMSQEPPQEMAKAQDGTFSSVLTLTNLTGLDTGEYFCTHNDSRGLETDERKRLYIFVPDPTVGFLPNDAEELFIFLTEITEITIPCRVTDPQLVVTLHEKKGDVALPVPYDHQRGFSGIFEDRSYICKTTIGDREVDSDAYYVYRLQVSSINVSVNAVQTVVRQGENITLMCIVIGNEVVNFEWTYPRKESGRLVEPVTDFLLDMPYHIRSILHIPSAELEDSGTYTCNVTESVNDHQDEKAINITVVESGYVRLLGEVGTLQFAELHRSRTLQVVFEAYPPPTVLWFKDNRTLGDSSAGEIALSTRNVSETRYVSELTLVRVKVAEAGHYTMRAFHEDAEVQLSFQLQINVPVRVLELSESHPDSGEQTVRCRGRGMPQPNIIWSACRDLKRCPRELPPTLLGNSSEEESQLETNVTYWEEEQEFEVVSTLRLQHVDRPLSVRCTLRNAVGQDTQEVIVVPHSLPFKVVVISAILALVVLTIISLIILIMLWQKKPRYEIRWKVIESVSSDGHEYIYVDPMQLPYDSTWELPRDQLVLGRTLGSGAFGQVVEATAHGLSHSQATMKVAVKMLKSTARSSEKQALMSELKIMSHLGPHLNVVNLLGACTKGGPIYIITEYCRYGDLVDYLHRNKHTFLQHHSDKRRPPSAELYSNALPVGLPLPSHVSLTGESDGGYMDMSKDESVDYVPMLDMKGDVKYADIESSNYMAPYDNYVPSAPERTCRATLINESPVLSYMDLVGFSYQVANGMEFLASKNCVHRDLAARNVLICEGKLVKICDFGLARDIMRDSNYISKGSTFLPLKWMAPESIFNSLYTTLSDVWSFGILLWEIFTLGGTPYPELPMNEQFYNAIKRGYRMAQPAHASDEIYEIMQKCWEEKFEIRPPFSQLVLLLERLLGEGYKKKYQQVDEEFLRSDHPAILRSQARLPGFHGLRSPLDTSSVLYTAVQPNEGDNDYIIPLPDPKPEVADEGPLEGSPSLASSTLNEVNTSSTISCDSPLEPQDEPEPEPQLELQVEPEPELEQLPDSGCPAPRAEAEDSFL

For `COC(=O)c1cc2c(cc1C)/C(=C(/Nc1ccc(C(=O)NCCC(=O)N3CCN(C)CC3)cc1)c1ccccc1)C(=O)N2` [Example 10, (Z)-Methyl 5-methyl-3-(((4-((3-(4-methylpiperazin-1-yl)-3-oxopropyl)carbamoyl)phenyl)amino) (phenyl)methylene)-2-oxoindoline-6-carboxylate], in series [1], the IC50 worked out at 15.9 nM. Also, the Ki in series [2] was 12.7 nM. Besides, in series [3], the “Cell viability at 100 nM (%)” value was found to be 85%, the “Cell viability at 300 nM (%)” value was 118.9% and the “Cell viability at 1000 nM (%)” value was 108.4%. Also, in series [4], the recovery at 5 hr, 10 μM was found to be 70.4% and the Papp at 5 h, 10 µM was 0.0428 ×10⁻⁶ cm/s.
Consider `COC(=O)c1cc2c(cc1C)/C(=C(/Nc1ccc(C(=O)N3CCC4(CC3)C(=O)NCCN4C)cc1)c1ccccc1)C(=O)N2` [Example 30, (Z)-Methyl 5-methyl-3-(((4-(1-methyl-5-oxo-1,4,9-triazaspiro[5.5]undecane-9-carbonyl)phenyl)amino)(phenyl)methylene)-2-oxoindoline-6-carboxylate], for which the IC50 in series [1] amounted to 6.02 nM. In series [2], this molecule yielded a Ki of 10 nM. Further, in series [3], the “Cell viability at 100 nM (%)” value is given as 107.2%, the “Cell viability at 300 nM (%)” value is recorded as 85.3% and the “Cell viability at 1000 nM (%)” value amounted to 16.4%. Besides, in series [4], the recovery at 5 hr, 10 μM worked out at 87.2% and the Papp at 5 h, 10 µM stood at 0.0235 ×10⁻⁶ cm/s.
In the case of `COC(=O)c1cc2c(cc1C)/C(=C(/Nc1ccc(S(=O)(=O)NCCN(C)C)cc1)c1ccccc1)C(=O)N2` [Example 25, (Z)-Methyl 3-(((4-(N-(2-(dimethylamino)ethyl)sulfamoyl)phenyl)amino)(phenyl)methylene)-5-methyl-2-oxoindoline-6-carboxylate, formate], the IC50 in series [1] was found to be 24.2 nM. This molecule returned a Ki in series [2] of 11.7 nM. In addition, in series [3], the “Cell viability at 100 nM (%)” value was 83.2%, the “Cell viability at 300 nM (%)” value amounted to 74.7% and the “Cell viability at 1000 nM (%)” value stood at 55.4%. Further, in series [4], the recovery at 5 hr, 10 μM amounted to 105% and the Papp at 5 h, 10 µM was 11 ×10⁻⁶ cm/s.
As for `COCCN1CCC(NC(=O)c2ccc(N/C(=C3\C(=O)Nc4cc(C(=O)OC)c(C)cc43)c3ccccc3)cc2)CC1` [Example 20, (Z)-Methyl 3-(((4-((1-(2-methoxyethyl)piperidin-4-yl)carbamoyl)phenyl)amino)(phenyl)methylene)-5-methyl-2-oxoindoline-6-carboxylate], in series [1], the IC50 was 38.9 nM. Also, in series [2], the affinity corresponds to a Ki of 19.1 nM. In series [3], the “Cell viability at 100 nM (%)” value came out at 92.6%, the “Cell viability at 300 nM (%)” value was 91.7% and the “Cell viability at 1000 nM (%)” value stood at 87.2%. In series [4], this molecule registered a recovery at 5 hr, 10 μM of 104% and a Papp at 5 h, 10 µM of 0.0165 ×10⁻⁶ cm/s.
On to `COC(=O)c1cc2c(cc1C)/C(=C(/Nc1ccc(C(=O)N3CCN(C)CC3)cc1)c1ccccc1)C(=O)N2` [Example 17, (Z)-Methyl 5-methyl-3-(((4-(4-methylpiperazine-1-carbonyl)phenyl)amino)(phenyl)methylene)-2-oxoindoline-6-carboxylate], for which the IC50 in series [1] was 4.48 nM. Besides, in series [2], the affinity, expressed as Ki, was 9.39 nM. Also, in series [3], the “Cell viability at 100 nM (%)” value is listed as 76.2%, the “Cell viability at 300 nM (%)” value turned out to be 63.6% and the “Cell viability at 1000 nM (%)” value stood at 34.1%. In series [4], this molecule showed a recovery at 5 hr, 10 μM of 59.8% and a Papp at 5 h, 10 µM of 24.6 ×10⁻⁶ cm/s.
In the case of `COCCNC(=O)CN1CCN(C(=O)c2ccc(N/C(=C3\C(=O)Nc4cc(C(=O)OC)c(C)cc43)c3ccccc3)cc2)CC1` [Example 39, (Z)-Methyl-3-(((4-(4-(2-((2-methoxyethyl)amino)-2-oxoethyl)piperazine-1-carbonyl)phenyl)amino)(phenyl)methylene)-5-methyl-2-oxoindoline-6-carboxylate], the IC50 in series [1] was 5.95 nM. Also, the affinity in series [2] corresponds to a Ki of 14.1 nM. In series [3], the “Cell viability at 100 nM (%)” value was determined as 96.2%, the “Cell viability at 300 nM (%)” value worked out at 73.3% and the “Cell viability at 1000 nM (%)” value is 36.7%. In addition, in series [4], the recovery at 5 hr, 10 μM worked out at 85.7% and the Papp at 5 h, 10 µM was 0.633 ×10⁻⁶ cm/s.

The values are drawn from patent US10669235B2, “Indole derivatives and their use as protein kinase inhibitors” (RESPIVERT LIMITED, priority 2016, dated 2020).
